From article PMC10399197, “Insights into Enzymatic Catalysis from Binding and Hydrolysis of Diadenosine Tetraphosphate by E. coli Adenylate Kinase” (Biochemistry, 2023)

Key:
adenylate kinase (AdK) [1] = molecular target: T1, adenylate kinase (AdK) (Escherichia coli, UniProt P69441); experiment: Kd (Figure S1; ITC in the Supporting Information); also 1H-15N HSQC NMR, DEER EPR and […] NMR hydrolysis; type: binding; design: wild-type AdK
adenylate kinase (AdK) [2] = molecular target: T1, adenylate kinase (AdK); experiment: X-ray crystal structure at […] Å (AdK cocrystallized with AP4A; two ADP molecules modeled); type: binding

T1 sequence (P69441 whole entry): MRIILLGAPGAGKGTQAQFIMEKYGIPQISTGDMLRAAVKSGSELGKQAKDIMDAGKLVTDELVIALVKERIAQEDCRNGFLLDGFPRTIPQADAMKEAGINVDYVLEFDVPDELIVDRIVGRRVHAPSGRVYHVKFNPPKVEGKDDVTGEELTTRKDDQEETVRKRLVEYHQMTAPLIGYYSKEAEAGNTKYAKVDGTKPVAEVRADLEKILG

Structure (SMILES) | Kd (adenylate kinase (AdK) [1]) | X-ray crystal structure at 1.49 Å (AdK cocrystallized with AP4A); two ADP molecul (adenylate kinase (AdK) [2])
Nc1ncnc2c1ncn2[C@@H]1O[C@H](COP(=O)(O)OP(=O)(O)OP(=O)(O)OP(=O)(O)OC[C@H]2O[C@@H](n3cnc4c(N)ncnc43)[C@H](O)[C@@H]2O)[C@@H](O)[C@H]1O [AP4A] | 14 µM | 
Nc1ncnc2c1ncn2[C@@H]1O[C@H](COP(=O)(O)OP(=O)(O)O)[C@@H](O)[C@H]1O [ADP] |  | the crystals trapped AdK in the closed conformation in complex with two ADP molecules
